Assay results reported in patent publication US20150148235A1, “HERBICIDE-RESISTANT SUNFLOWER PLANTS WITH MULTIPLE HERBICIDE RESISTANT ALLELES OF AHASL1 AND METHODS OF USE” (NIDERA S.A., priority 2013, published 2015).

Tests used:
[1] = tested on: AHAS enzyme, A122T Homozygous sunflower; assay: AHAS enzyme activity assay, leaf extract; format: biochemical, Helianthus annuus; conditions: A122T homozygous hybrid (Set 1); 100 μM
Protocol: (§1) Twelve greenhouse grown sunflower plants from each of the lines depicted in Table 21 were bulked and subjected to an AHAS enzyme activity assay via the method of Singh et al. (1988) Anal. Biochem. 171:173-179. Each activity assay was repeated twice. Due to the large number of samples, the experiment was split into two sets (Table 21).
(§2) Young, actively growing leaves, from four week old plantlets, were ground in a mortar and pestle with liquid N2 and extracted with a buffer composed of 100 mM Pyruvate, 200 mM KH2PO4, 20 mM MgCl2, 2 mM thiamine pyrophosphate and […]. Plant extracts were then spun through a 10 mL Zeba TM desalt spin column (Pierce #89893) as per the manufacturer's recommendation. The inhibition assay was performed as described by Singh et al. (1988) Anal. Biochem. 171:173-179. Assays were conducted in a 96-well format. Fifty μl of inhibitor was added to each well containing 50 μl of soluble protein extract to give final concentrations of 0.78, 1.56, 3.125, 6.25, 12.5, 25, 50 and 100 μM imazamox or 0.78, 1.56, 3.125, 6.25, 12.5, 25, 50 and 100 μM imazapyr. Zero herbicide controls were also included for each line. Reactions were processed as outlined by Singh et al. (1988) Anal. Biochem. 171:173-179. Absorbance was measured at 530 nm. AHAS activity, expressed as the mean of the absorbance values for each treatment, was presented as a percentage of the mean of the zero-herbicide controls.

[2] = tested on: AHAS enzyme, A122T/A205V Heterozygous sunflower; assay: AHAS enzyme activity assay, leaf extract; format: biochemical, Helianthus annuus; conditions: A122T/A205V heterozygous hybrid (Set 1); 100 μM
Protocol: as §1, §2

[3] = tested on: AHAS enzyme, A205V Homozygous sunflower; assay: AHAS enzyme activity assay, leaf extract; format: biochemical, Helianthus annuus; conditions: A205V homozygous hybrid (Set 1); 100 μM
Protocol: as §1, §2

[4] = tested on: sunflower hybrids and lines (A122T, A205V, A205V/A122T); assay: Field trial North Dakota 2006, phytotoxicity ratings after imazamox or imazapyr, Example 3; format: in vivo, Helianthus annuus; conditions: for Phytotoxicity Rating (% Crop Injury): 160 g ai/ha + 0.25% NIS
Protocol: • Spray volume: 10 gallons per acre (GPA) (or 100 liters/ha) for backpack sprayer or 20 GPA (or 200 liters/ha) for tractor mounted boom • Growth Stage at Herbicide Application: 2-4 leaves
Entry 15 (WT Maintainer line) was left unsprayed in all treatment blocks.
Phytotoxicity ratings were assessed at 7 and 21 days following herbicide application.
The data was subjected to an ANOVA analysis and the means from the 3 repetitions are presented in Table 7 (phytotoxicity at 7 days post-treatment) and Table 8 (phytotoxicity at 21 days post-treatment).

## CC(C)C1(C)N=C(c2ncccc2C(=O)O)NC1=O (centres unmarked) [imazapyr]
[1]
  AHAS activity: 64 % of untreated control
[2]
  AHAS activity: 60%
[3]
  AHAS activity: 42 % of untreated control
[4]; 1-hybrid (WT × IMI restorer, A205 hetero), 7 DAT
  Phytotoxicity Rating (% Crop Injury): 16.7%
[4]; 1-hybrid (WT × IMI restorer, A205 hetero), 21 DAT
  Phytotoxicity Rating (% Crop Injury): 20.0%
[4]; 3-hybrid (WT × IMI restorer, A205 hetero), 7 DAT
  Phytotoxicity Rating (% Crop Injury): 35.0%
[4]; 3-hybrid (WT × IMI restorer, A205 hetero), 21 DAT
  Phytotoxicity Rating (% Crop Injury): 43.3%
[4]; 4-line (IMI Restorer, A205 homo), 7 DAT
  Phytotoxicity Rating (% Crop Injury): 11.7%
[4]; 4-line (IMI Restorer, A205 homo), 21 DAT
  Phytotoxicity Rating (% Crop Injury): 6.7%
[4]; 6-hybrid (IMI CMS × IMI restorer, A205 homo), 7 DAT
  Phytotoxicity Rating (% Crop Injury): 8.3%
[4]; 6-hybrid (IMI CMS × IMI restorer, A205 homo), 21 DAT
  Phytotoxicity Rating (% Crop Injury): 3.3%
[4]; 7-hybrid (WT-CMS × IMI restorer, A205 hetero), 7 DAT
  Phytotoxicity Rating (% Crop Injury): 21.7%
[4]; 7-hybrid (WT-CMS × IMI restorer, A205 hetero), 21 DAT
  Phytotoxicity Rating (% Crop Injury): 36.7%
[4]; 8-hybrid (WT × GM40 restorer, A122 hetero), 7 DAT
  Phytotoxicity Rating (% Crop Injury): 13.3%
[4]; 8-hybrid (WT × GM40 restorer, A122 hetero), 21 DAT
  Phytotoxicity Rating (% Crop Injury): 11.7%
[4]; 9-line (GM40 restorer, A122 homo), 7 DAT
  Phytotoxicity Rating (% Crop Injury): 8.3%
[4]; 9-line (GM40 restorer, A122 homo), 21 DAT
  Phytotoxicity Rating (% Crop Injury): 5.0%
[4]; 10-hybrid (IMI CMS × GM40 restorer, A205/A122 hetero/double), 7 DAT
  Phytotoxicity Rating (% Crop Injury): 3.3%
[4]; 10-hybrid (IMI CMS × GM40 restorer, A205/A122 hetero/double), 21 DAT
  Phytotoxicity Rating (% Crop Injury): 0.0%
[4]; 11-hybrid (GM40 CMS × IMI restorer, A205/A122 hetero/double), 7 DAT
  Phytotoxicity Rating (% Crop Injury): 3.3%
[4]; 11-hybrid (GM40 CMS × IMI restorer, A205/A122 hetero/double), 21 DAT
  Phytotoxicity Rating (% Crop Injury): 0.0%
[4]; 12-hybrid (IMI CMS × GM40 restorer, A205/A122 hetero/double), 7 DAT
  Phytotoxicity Rating (% Crop Injury): 5.0%
[4]; 12-hybrid (IMI CMS × GM40 restorer, A205/A122 hetero/double), 21 DAT
  Phytotoxicity Rating (% Crop Injury): 1.7%
[4]; 13-hybrid (GM40 CMS × GM40 restorer, A122 homo), 7 DAT
  Phytotoxicity Rating (% Crop Injury): 5.0%
[4]; 13-hybrid (GM40 CMS × GM40 restorer, A122 homo), 21 DAT
  Phytotoxicity Rating (% Crop Injury): 1.7%
[4]; 14-hybrid (GM40 CMS × GM40 restorer, A122 homo), 7 DAT
  Phytotoxicity Rating (% Crop Injury): 8.3%
[4]; 14-hybrid (GM40 CMS × GM40 restorer, A122 homo), 21 DAT
  Phytotoxicity Rating (% Crop Injury): 3.3%
[4]; 15-hybrid (WT × GM40 restorer, A122 hetero), 7 DAT
  Phytotoxicity Rating (% Crop Injury): 8.3%
[4]; 15-hybrid (WT × GM40 restorer, A122 hetero), 21 DAT
  Phytotoxicity Rating (% Crop Injury): 21.7%
[4]; 16-hybrid (WT × GM40 restorer, A122 hetero), 7 DAT
  Phytotoxicity Rating (% Crop Injury): 10.0%
[4]; 16-hybrid (WT × GM40 restorer, A122 hetero), 21 DAT
  Phytotoxicity Rating (% Crop Injury): 23.3%
[4]; heterozygous A205V entries, 160 g ai/ha, 21 DAT
  phytotoxicity: 20-43%
